{"source": "patent US20120190615A1", "about": "“METHODS AND COMPOSITIONS FOR INDUCING WEIGHT LOSS” (Sanford-Burnham Medical Research Institute, priority 2011, published 2012)", "tested_on": "wild-type C57BL6 mice fed a high fat diet", "experiment": "High fat diet six weeks with OX once per day, body weight and NMR body composition (Example 11)", "assay_type": "in vivo", "conditions": "HFD six weeks", "description": "To confirm these findings and investigate the role for OX in energy metabolism and to prevent obesity, wild-type C57BL6 mice were fed a high fat diet (HFD) for six weeks. During this period, half of the mice received OX intraperitoneally once per day, while the other half was injected with saline. Food intake and body weight of both groups were monitored weekly. OX-treated mice ate more, resisted weight gain, were visibly lean, and accumulated less fat. […] Fat and lean mass were determined by subjecting mice to nuclear magnetic resonance (NMR) (Bruker, The Woodlands, Tex., United States) following a four-hour fast. OX therapy had no impact on either the lean mass or total fluid content. FIG. 27 illustrates these findings. Weekly energy intake, cumulative energy consumed, body weight gain over six weeks, and differences in body size between the two groups of mice are depicted."}
{"substance": "orexin-A (EPLPDCCRQKTCSCRLYELLHGAGNHAAGILTL) [OX, human orexin A, cat; No. 24470, Anaspec]", "values": [{"measurement": "abdominal obesity of control mice relative to OX-treated mice", "setting": "OX i.p. once per day", "result": 3.5, "unit": "times"}, {"measurement": "body fat accumulated by control mice relative to OX-treated mice", "setting": "OX i.p. once per day", "result": "twice as much body fat"}, {"measurement": "control mice heavier than OX-treated mice", "setting": "OX i.p. once per day", "result": "approximately 35%"}, {"measurement": "impact on lean mass or total fluid content", "setting": "OX i.p. once per day", "result": "no impact"}, {"measurement": "% body fat", "setting": "NMR, n=4", "result": "15 ± 1.1", "unit": "%"}, {"measurement": "Fat mass", "setting": "NMR, n=4", "result": "3.4 ± 0.4"}, {"measurement": "Fluid content", "setting": "NMR, n=4", "result": "7.7 ± 1.5"}, {"measurement": "Lean mass", "setting": "NMR, n=4", "result": "18.7 ± 1.1"}, {"measurement": "Lean mass-fat mass ratio", "setting": "NMR, n=4", "result": "5.5 ± 0.3"}]}
